Laboratory results from US20200039973A1, “NOVEL 5-SUBSTITUTED IMIDAZOLYLMETHYL DERIVATIVES” (BAYER CROPSCIENCE AKTIENGESELLSCHAFT, priority 2016, published 2020).

Assay: Measurement of LogP values by HPLC on reversed phase columns (EEC directive 79/831 Annex V.A8)
Assay type: physicochemical
Details: Table 1; method [a]: LC-UV, acidic range, 0.1% formic acid in water and acetonitrile as eluent
Protocol: Measurement of LogP values was performed according to EEC directive 79/831 Annex V.A8 by HPLC (High Performance Liquid Chromatography) on reversed phase columns with the following methods: • ^[a] Log P value is determined by measurement of LC-UV, in an acidic range, with 0.1% formic acid in water and acetonitrile as eluent (linear gradient from 10% acetonitrile to 95% acetonitrile). • ^[b] Log P value is determined by measurement of LC-UV, in a neutral range, with 0.001 molar ammonium acetate solution in water and acetonitrile as eluent (linear gradient from 10% acetonitrile to 95% acetonitrile). • ^[c] Log P value is determined by measurement of LC-UV, in an acidic range, with 0.1% phosphoric acid and acetonitrile as eluent (linear gradient from 10% acetonitrile to 95% acetonitrile).
If more than one Log P value is available within the same method, all the values are given and separated by “+”.
Calibration was done with straight-chain alkan2-ones (with 3 to 16 carbon atoms) with known Log P values (measurement of Log P values using retention times with linear interpolation between successive alkanones). Lambda-max-values were determined using UV-spectra from 200 nm to 400 nm and the peak values of the chromatographic signals.
For `N#Cc1cncn1CC(O)(Cc1ccccc1Cl)c1ccc(F)cc1F` (centres unmarked) [I-01], the LogP was 3.00^[a].
With `N#Cc1cncn1CC(O)(Cc1ccc(F)cc1F)c1ccc(F)cc1F` (centres unmarked) [I-02] the LogP was 2.82^[a].
In the case of `N#Cc1cncn1CC(O)(Cc1ccc(F)c(F)c1F)c1ccc(F)cc1F` (centres unmarked) [I-03], the LogP is reported as 2.96^[a].
For `N#Cc1cncn1CC(O)(Cc1cccc(F)c1F)c1ccccc1` (centres unmarked) [I-04], the LogP was 2.40^[a].
For `N#Cc1cncn1CC(O)(Cc1ccc(F)cc1)c1ccccc1` (centres unmarked) [I-05], the LogP was 2.47^[a].
For `N#Cc1cncn1CC(O)(Cc1ccc(Cl)cc1F)c1ccc(F)cc1F` (centres unmarked) [I-07], the LogP was 3.17^[a].
For `N#Cc1cncn1CC(O)(Cc1ccccc1F)c1ccccc1` (centres unmarked) [I-08], the LogP was 2.51^[a].
For `N#Cc1cncn1CC(O)(Cc1ccc(F)cc1F)c1ccccc1` (centres unmarked) [I-09], the LogP was 2.60^[a].
With `N#Cc1cncn1CC(O)(Cc1ccc(F)cc1F)c1ccc(Cl)s1` (centres unmarked) [I-10] the LogP was 2.90^[a].
In the case of `Cc1cccc(CC(O)(Cn2cncc2C#N)c2ccc(F)cc2F)c1F` (centres unmarked) [I-11], the LogP is reported as 2.98^[a].
With `N#Cc1cncn1CC(O)(Cc1cccc(F)c1F)c1ccc(F)cc1F` (centres unmarked) [I-12] the LogP was 2.75^[a].
In the case of `N#Cc1cncn1CC(O)(Cc1ccccc1F)C1(c2ccccc2)CC1` (centres unmarked) [I-14], the LogP is reported as 3.18^[a].
With `N#Cc1cncn1CC(O)(Cc1ccccc1Cl)C1(c2ccccc2)CC1` (centres unmarked) [I-15] the LogP was 3.44^[a].
With `N#Cc1cncn1CC(O)(Cc1ccccc1Cl)c1ccccc1` (centres unmarked) [I-17] the LogP was 2.70^[a].
With `N#Cc1cncn1CC(O)(Cc1ccc(Cl)cc1F)c1ccccc1` (centres unmarked) [I-18] the LogP was 2.98^[a].
With `N#Cc1cncn1CC(O)(Cc1ccccc1F)c1ccc(Cl)s1` (centres unmarked) [I-19] the LogP was 2.78^[a].
For `N#Cc1cncn1CC(O)(Cc1ccccc1F)c1ccc(F)cc1F` (centres unmarked) [I-20], the LogP was 2.68^[a].
In the case of `N#Cc1cncn1CC(O)(Cc1ccc(F)c(F)c1F)c1ccccc1` (centres unmarked) [I-21], the LogP is reported as 2.57^[a].
In the case of `N#Cc1cncn1CC(O)(Cc1cccc(Cl)c1F)c1ccc(F)cc1F` (centres unmarked) [I-22], the LogP is reported as 3.06^[a].
In the case of `N#Cc1cncn1CC(O)(Cc1cccc(F)c1F)C1(c2ccccc2)CC1` (centres unmarked) [I-23], the LogP is reported as 3.25^[a].
For `N#Cc1cncn1CC(O)(Cc1ccc(F)cc1)c1ccc(F)cc1F` (centres unmarked) [I-24], the LogP was 2.73^[a].
For `N#Cc1cncn1CC(O)(Cc1ccccc1F)c1cc(F)ccc1F` (centres unmarked) [I-25], the LogP was 2.63^[a].
With `N#Cc1cncn1CC(O)(Cc1ccc(Cl)cc1F)c1cc(F)ccc1F` (centres unmarked) [I-26] the LogP was 3.07^[a].
For `N#Cc1cncn1CC(O)(Cc1ccc(F)cc1F)c1cc(F)ccc1F` (centres unmarked) [I-27], the LogP was 2.77^[a].
For `N#Cc1cncn1CC(O)(Cc1ccccc1Cl)c1cc(F)ccc1F` (centres unmarked) [I-28], the LogP was 2.92^[a].
With `N#Cc1cncn1CC(O)(Cc1cccc(F)c1F)c1cc(F)ccc1F` (centres unmarked) [I-29] the LogP was 2.73^[a].
For `N#Cc1cncn1CC(O)(Cc1ccccc1F)c1ccco1` (centres unmarked) [I-30], the LogP was 2.15^[a].
With `N#Cc1cncn1CC(O)(Cc1cccc(F)c1F)c1ccco1` (centres unmarked) [I-31] the LogP was 2.25^[a].
In the case of `N#Cc1cncn1CC(O)(Cc1ccccc1Cl)c1ccco1` (centres unmarked) [I-32], the LogP is reported as 2.45^[a].
In the case of `N#Cc1cncn1CC(O)(Cc1cccc(Cl)c1F)c1ccco1` (centres unmarked) [I-33], the LogP is reported as 2.57^[a].
`N#Cc1cncn1CC(O)(Cc1ccc(F)cc1F)c1ccco1` (centres unmarked) [I-34, 3-[3-(2,4-difluorophenyl)-2-(2-furyl)-2-hydroxy-propyl]imidazole-4-carbonitrile] showed a chromatographic logP of 2.32.

Same assay, conditions: Table 2 (formula XVIIa); method [a]: LC-UV, acidic range, 0.1% formic acid in water and acetonitrile as eluent
In the case of `N#Cc1cncn1CC(=O)Cc1cccc(F)c1F` [XVIIa-02], the LogP is reported as 1.87^[a].
With `N#Cc1cncn1CC(=O)Cc1ccccc1F` [XVIIa-03] the LogP was 1.75^[a].
With `N#Cc1cncn1CC(=O)Cc1ccccc1` [XVIIa-04] the LogP was 1.65^[a].
For `N#Cc1cncn1CC(=O)Cc1ccccc1Cl` [XVIIa-05], the LogP was 1.82^[a].
For `N#Cc1cncn1CC(=O)Cc1ccccc1Br` [XVIIa-06], the LogP was 2.02^[a].
For `N#Cc1cncn1CC(=O)Cc1ccc(Cl)cc1` [XVIIa-07], the LogP was 2.14^[a].

Same assay, conditions: reversed-phase HPLC column; Table 1; method [a]: LC-UV, acidic range, 0.1% formic acid in water and acetonitrile as eluent
With `N#Cc1cncn1CC(O)(Cc1ccc(F)cc1F)C1(c2ccccc2)CC1` (centres unmarked) [I-06, 3-[3-(2,4-difluorophenyl)-2-hydroxy-2-(1-phenylcyclopropyl)propyl]imidazole-4-carbonitrile] the chromatographic logP was 3.29.
Compound `N#Cc1cncn1CC(O)(Cc1ccccc1)c1ccc(F)cc1F` (centres unmarked) [I-13, 3-[2-(2,4-difluorophenyl)-2-hydroxy-3-phenyl-propyl]imidazole-4-carbonitrile] has a chromatographic logP of 2.68.
`N#Cc1cncn1CC(O)(Cc1cccc(F)c1F)c1ccc(Cl)s1` (centres unmarked) [I-16, 3-[2-(5-chloro-2-thienyl)-3-(2,3-difluorophenyl)-2-hydroxy-propyl]imidazole-4-carbonitrile] gave a chromatographic logP of 2.86.

Same assay, conditions: reversed-phase HPLC column; Table 2 (formula XVIIa); method [a]: LC-UV, acidic range, 0.1% formic acid in water and acetonitrile as eluent
Work on `N#Cc1cncn1CC(=O)C1(c2ccccc2)CC1` [XVIIa-01, 3-[2-oxo-2-(1-phenylcyclopropyl)ethyl]imidazole-4-carbonitrile] yielded a chromatographic logP of 2.17.
